Assay results taken from patent US11766470B2, “Manufacture, formulation and dosing of apraglutide” (VectivBio AG, priority 2020, dated 2023).
Where “and” joins values, the source holds several entries; their conditions need not be identical. Equal entries are not always repeated. Square brackets hold non-standard residues; d marks the D form. Peptide text beside a SMILES is read from it. ξ: configuration not given here. Ile(3ξ) = CCC(C)[C@H](N)C(=O)O; Thr(3ξ) = CC(O)[C@H](N)C(=O)O; Nle = CCCC[C@H](N)C(=O)O

System: patients with SBS-IF or SBS-II
Assay: Phase 2 open-label metabolic balance trial in SBS-IF and SBS-II patients (Example 6): 72-hour metabolic balance, body composition, plasma L-citrulline
Assay type: in vivo, human
Details: 5 mg once weekly
Experimental: Treatment with glucagon-like peptide-2 (GLP-2) analogs promotes intestinal adaptation in patients with short bowel syndrome (SBS). Apraglutide is a novel long-acting GLP-2 analog designed to enable once weekly dosing. This Phase 2 trial investigated the safety and efficacy of once weekly 5 mg apraglutide in patients with SBS intestinal failure (SBS-IF) and SBS intestinal insufficiency (SBS-II). In this open-label trial, 8 adult patients with SBS-IF (n=4) or SBS-II (n=4) and a fecal wet weight of >1500 g/day were treated with once weekly subcutaneous 5 mg apraglutide for 4 weeks. Safety was the primary endpoint. As secondary endpoints changes were examined from baseline in intestinal absorption of wet weight, energy (measured by bomb calorimetry) and electrolytes as well as fecal wet weight and urine production using 72-hour metabolic balance studies. Common treatment-related adverse events were consistent with the physiological effect of GLP-2 and included reduced stoma output (n=6), stoma complication (n=6), nausea (n=5), flatulence (n=4), polyuria (n=3) and abdominal pain (n=3).
A total of nine adult patients (aged ≥18 to ≤80 years) with SBS were screened, eight of whom enrolled in the trial: four patients had SBS-II and four patients had SBS-IF. Both subgroups of patients were included to investigate the safety and efficacy of apraglutide across the disease spectrum. Patient eligibility was assessed during a screening visit. Main inclusion criteria were SBS secondary to surgical resection of the small intestine with or without colon; at least six months since last surgical bowel resection; and a severe degree of malabsorption, defined as a fecal wet weight output≥1,500 g/day and a urine volume production<2000 mL/day.
Fecal output and urine volume production were confirmed during baseline examinations. Patients were excluded if they had clinical signs of active inflammatory bowel disease, a history of cancer within five years or an inadequate hepatic-, kidney- or heart function.
The contents of the buckets were weighed, processed intro dry matter, and analyzed as previously described: energy by bomb calorimetry, nitrogen by Kjeldahl's method, lipid by a modified Van de Kamer titration technique, carbohydrate by Englyst's method, sodium and potassium by flame photometry and calcium and magnesium by atomic absorption spectrometry. A 24-hour average was calculated based on the three 24-hour periods. Absolute changes were calculated as the difference between the baseline and the post-treatment value. Relative changes were calculated as absolute changes divided by baseline values multiplied by 100.
Body weight was measured using a levelled platform scale. Body composition was measured by dual-energy x-ray absorptiometry (Norland XR-36 DXA densitometer, Norland, Ford Atkinson, WI, USA) at baseline and post-treatment.
Blood samples for analysis of the plasma concentration of apraglutide and plasma concentration of fasting L-citrulline, a marker of enterocyte mass, were collected at baseline, during first and second injection (pre-dose and at sequential timepoints), four days after first injection and at the end of treatment. Blood sampling for apraglutide pharmacokinetics was also performed after the fourth and last injection covering 96 hours. […] Blood samples for anti-apraglutide antibodies were collected at baseline, at the end of treatment and at the 4-6 weeks follow-up visit. All eight patients tested negative for anti-apraglutide antibodies at baseline.
The primary endpoint of this trial was safety. Secondary endpoints were absolute and relative changes from baseline in dietary intake, fecal excretion and absorption of wet weight, energy, macronutrients and electrolytes, urine production, urine electrolyte excretion, body weight, body composition, bone mineral content, plasma L-citrulline as well as pharmacokinetic profiles. […]

[1] = comparison with other GLP-2 analogs

## CCCC[C@H](NC(=O)[C@H](CCC(=O)O)NC(=O)[C@H](CC(=O)O)NC(=O)[C@H](CO)NC(=O)[C@H](Cc1ccccc1)NC(=O)[C@H](CO)NC(=O)CNC(=O)[C@H](CC(=O)O)NC(=O)CNC(=O)[C@@H](N)Cc1c[nH]cn1)C(=O)N[C@H](Cc1ccccc1)C(=O)N[C@H](C(=O)N[C@H](C(=O)N[C@@H](CC(C)C)C(=O)N[C@@H](CC(=O)O)C(=O)N[C@@H](CC(C)C)C(=O)N[C@@H](CC(C)C)C(=O)N[C@@H](C)C(=O)N[C@@H](C)C(=O)N[C@@H](CCCNC(=N)N)C(=O)N[C@@H](CC(=O)O)C(=O)N[C@@H](Cc1ccccc1)C(=O)N[C@H](C(=O)N[C@@H](CC(N)=O)C(=O)N[C@@H](Cc1c[nH]c2ccccc12)C(=O)N[C@@H](CC(C)C)C(=O)N[C@H](C(=O)N[C@@H](CCC(N)=O)C(=O)N[C@H](C(=O)N[C@@H](CCCCN)C(=O)N[C@H](C(=O)N[C@H](C(=O)N[C@@H](CC(=O)O)C(N)=O)C(C)O)C(C)CC)C(C)O)C(C)CC)C(C)CC)C(C)CC)C(C)O (stereo partly drawn) [apraglutide, L-histidyl-glycyl-L-aspartyl-glycyl-L-seryl-L-phenylalanyl-L-seryl-L-aspartyl-L-glutamyl-L-norleucyl-D-phenylalanyl-L-threonyl-Lisoleucyl-L-leucyl-L-aspartyl-L-leucyl-L-leucyl-L-alanyl-L-alanyl-L-arginyl-L-aspartyl-L-phenylalanyl-L-isoleucyl-L-asparaginyl-Ltryptophanyl-L-leucyl-L-isoleucyl-L-glutaminyl-L-threonyl-L-lysyl-L-isoleucyl-L-threonyl-Laspartic acid amide] (H-HGDGSFSDE[Nle][dF][Thr(3ξ)][Ile(3ξ)]LDLLAARDF[Ile(3ξ)]NWL[Ile(3ξ)]Q[Thr(3ξ)]K[Ile(3ξ)][Thr(3ξ)]D-NH2)
4 weeks
  Body weight increase from baseline: 1.8 kg
  Bone mineral content change from baseline: -20 g
  Calcium, absorption, change from baseline: 11 (−13 to 35); mmol/day
  Calcium, dietary intake, change from baseline: −2 (−5 to 2); mmol/day
  Calcium, fecal output, change from baseline: −13 (−36 to 11); mmol/day
  Calcium, urine excretion, change from baseline: 0 (−1 to 1) mmol/day
  Carbohydrate, absorption, change from baseline: 518 (112 to 924); kJ/day
  Carbohydrate, dietary intake, change from baseline: 154 (−268 to 575); kJ/day
  Carbohydrate, fecal output, change from baseline: −365 (−772 to 43); kJ/day
  Energy, dietary intake, change from baseline: 154 (−1,006 to 1,314); kJ/day
  Fat mass decrease from baseline: 1.1 kg
  Lean body mass increase from baseline: 1.7 kg
  Lipid, absorption, change from baseline: 376 (61 to 691); kJ/day
  Lipid, dietary intake, change from baseline: 67 (−638 to 771); kJ/day
  Lipid, fecal output, change from baseline: −309 (−969 to 351) kJ/day
  Magnesium, absorption, change from baseline: 0 (−9 to 9); mmol/day
  Magnesium, dietary intake, change from baseline: 1 (−2 to 3); mmol/day
  Magnesium, fecal output, change from baseline: 0 (−9 to 9); mmol/day
  Magnesium, urine excretion, change from baseline: 1 (−1 to 2), mmol/day
  Plasma L-citrulline, absolute increase from baseline: 15.2 µmol/L
  Plasma L-citrulline, relative increase from baseline: 66%
  Potassium, absorption, change from baseline: 18 (4 to 32; p < 0.05) mmol/day and 18 (4 to 32); mmol/day
  Potassium, dietary intake, change from baseline: 4 (−5 to 12); mmol/day
  Potassium, fecal output, change from baseline: −15 (−32 to 3); mmol/day
  Potassium, urine excretion, change from baseline: 13 (6 to 20); mmol/day
  Protein, absorption, change from baseline: 104 (−205 to 412); kJ/day
  Protein, dietary intake, change from baseline: −41 (−274 to 191); kJ/day
  Protein, fecal output, change from baseline: −145 (−497 to 207); kJ/day
  Sodium, absorption, change from baseline: 38 (3 to 74; p < 0.05) mmol/day and 38 (3 to 74); mmol/day
  Sodium, dietary intake, change from baseline: −5 (−30 to 21); mmol/day
  Sodium, fecal output, change from baseline: −43 (−92 to 6); mmol/day
  Sodium, urine excretion, change from baseline: 27 (5 to 49); mmol/day
  Wet weight, absorption, change from baseline: 741 (194 to 1287; p < 0.05) g/day and 741 (194 to 1,287); g/day
  Wet weight, dietary intake, change from baseline: 61 (−84.0 to 207); g/day
  Wet weight, fecal output, change from baseline: −680 (−1200 to −159; p < 0.05) ^ g/day and −680 (−1,200 to −159); g/day
  Wet weight, urine (urine production), change from baseline: 560 (72 to 1048; p < 0.05) g/day and 560 (72 to 1,048); g/day
4 weeks, bomb calorimetry
  Energy, absorption, change from baseline: 1,095 kJ/day
4 weeks, listed as Apraglutide
  Potassium, absorption, change from baseline: 18 mmol/day
  Potassium, urine excretion, change from baseline: 13 mmol/day
  Sodium, absorption, change from baseline: 38 mmol/day
  Sodium, urine excretion, change from baseline: 27 mmol/day
  Wet weight, absorption, change from baseline: 741 g/day
  Wet weight, fecal output, change from baseline: -680 g/day
  Wet weight, urine (urine production), change from baseline: 560 g/day
[1]
  Change from baseline increase in urinary input: 140.1%
  Change in baseline in energy absorption: 1,074 kj/day
  Change in baseline in wet weight absorption: 760.4 g/day
